Assay results taken from ChEMBL document CHEMBL2086259, “13,28-Epoxy triterpenoid saponins from Ardisia japonica selectively inhibit proliferation of liver cancer cells without affecting normal liver cells” (Bioorg Med Chem Lett, 2012).

Legend:
Bel-7402 = assay: Cytotoxicity against human Bel7402 cells after 72 hrs by MTT assay; type: functional, cell-based; settings: Bel-7402, 72 h
HepG2 = assay: Cytotoxicity against human HepG2 cells after 72 hrs by MTT assay; type: functional, cell-based; settings: HepG2, 72 h
[1] = Cytotoxicity against human HL-7702 cells after 72 hrs by MTT assay; type: cell-based; settings: L02, 72 h

Structure (SMILES): C[C@@H]1O[C@@H](O[C@H]2[C@H](O[C@H]3CO[C@@H](O[C@H]4CC[C@]5(C)[C@H]6CC=C7[C@@H]8C[C@@](C)(CO)CC[C@]8(CO)[C@@H]8O[C@@H]8[C@@]7(C)[C@]6(C)CC[C@H]5C4(C)C)[C@H](O[C@@H]4O[C@H](CO)[C@@H](O)[C@H](O)[C@H]4O)[C@H]3O)O[C@H](CO)[C@@H](O)[C@@H]2O)[C@H](O)[C@H](O)[C@H]1O [ARDISIANOSIDE K]
- IC50 (Bel-7402): > 100 µM
- IC50 (HepG2): > 100 µM
- IC50 [1]: > 100 µM

Structure (SMILES): CC1(C)CC[C@]23CO[C@@]4(CC[C@@H]5[C@@]6(C)CC[C@H](O[C@@H]7OC[C@H](O[C@@H]8O[C@H](CO)[C@@H](O)[C@H](O)[C@H]8O[C@@H]8OC[C@@H](O)[C@H](O)[C@H]8O)[C@H](O)[C@H]7O)C(C)(C)[C@@H]6CC[C@@]5(C)[C@]4(C)C[C@H]2O)[C@@H]3C1 [ARDISIANOSIDE D]
- IC50 (Bel-7402): 14.8 µM
- IC50 (HepG2): 31.2 µM
- IC50 [1]: > 100 µM

Structure (SMILES): C[C@@H]1O[C@@H](O[C@H]2[C@H](O[C@H]3CO[C@@H](O[C@H]4CC[C@]5(C)[C@H]6CC[C@]78OC[C@@]9(CC[C@](C)(C=O)C[C@H]97)C(=O)C[C@@]8(C)[C@]6(C)CC[C@H]5C4(C)C)[C@H](O)[C@H]3O)O[C@H](CO)[C@@H](O)[C@@H]2O)[C@H](O)[C@H](O)[C@H]1O [ARDISIAMAMILLOSIDE H]
- IC50 (Bel-7402): > 100 µM
- IC50 (HepG2): > 100 µM
- IC50 [1]: > 100 µM

Structure (SMILES): CC1(C)CC[C@]23C(=O)O[C@@]4(CC[C@@H]5[C@@]6(C)CC[C@H](O[C@@H]7OC[C@H](O[C@@H]8O[C@H](CO)[C@@H](O)[C@H](O[C@@H]9O[C@H](CO)[C@@H](O[C@@H]%10O[C@H](CO)[C@@H](O)[C@H](O)[C@H]%10O)[C@H](O[C@@H]%10O[C@H](CO)[C@@H](O)[C@H](O)[C@H]%10O)[C@H]9O)[C@H]8O[C@@H]8OC[C@@H](O)[C@H](O)[C@H]8O)[C@H](O)[C@H]7O[C@@H]7O[C@H](CO)[C@@H](O)[C@H](O)[C@H]7O)C(C)(C)[C@@H]6CC[C@@]5(C)[C@]4(C)C[C@H]2O)[C@@H]3C1 [ARDISIANOSIDE H]
- IC50 (Bel-7402): > 100 µM
- IC50 (HepG2): > 100 µM
- IC50 [1]: > 100 µM

Structure (SMILES): C[C@@H]1O[C@@H](O[C@H]2[C@H](O[C@H]3CO[C@@H](O[C@H]4CC[C@]5(C)[C@H]6CC[C@]78OC[C@@]9(CC[C@](C)(O)C[C@H]97)[C@H](O)C[C@@]8(C)[C@]6(C)CC[C@H]5C4(C)C)[C@H](O[C@@H]4O[C@H](CO)[C@@H](O)[C@H](O)[C@H]4O)[C@H]3O)O[C@H](CO)[C@@H](O)[C@@H]2O)[C@H](O)[C@H](O)[C@H]1O [ARDISIANOSIDE G]
- IC50 (Bel-7402): > 100 µM
- IC50 (HepG2): > 100 µM
- IC50 [1]: > 100 µM

Structure (SMILES): C[C@@H]1O[C@@H](O[C@H]2[C@H](O[C@H]3CO[C@@H](O[C@H]4CC[C@]5(C)[C@H]6CC[C@]78OC[C@@]9(CC[C@](C)(CO)C[C@H]97)[C@H](O)C[C@@]8(C)[C@]6(C)CC[C@H]5C4(C)C)[C@H](O[C@@H]4O[C@H](CO)[C@@H](O)[C@H](O)[C@H]4O)[C@H]3O)O[C@H](CO)[C@@H](O)[C@@H]2O)[C@H](O)[C@H](O)[C@H]1O [ARDISICRENOSIDE A]
- IC50 (Bel-7402): > 100 µM
- IC50 (HepG2): > 100 µM
- IC50 [1]: > 100 µM

Structure (SMILES): CC1(C)CC[C@]23CO[C@@]4(CC[C@@H]5[C@@]6(C)CC[C@H](O[C@@H]7OC[C@H](O[C@@H]8O[C@H](CO)[C@@H](O)[C@H](O)[C@H]8O)[C@H](O)[C@H]7O[C@@H]7O[C@H](CO)[C@@H](O)[C@H](O)[C@H]7O)C(C)(C)[C@@H]6CC[C@@]5(C)[C@]4(C)C[C@H]2O)[C@@H]3C1
- IC50 (Bel-7402): 4.18 µM
- IC50 (HepG2): 14.4 µM
- IC50 [1]: > 100 µM

Structure (SMILES): C[C@@H]1O[C@@H](O[C@H]2[C@H](O[C@H]3CO[C@@H](O[C@H]4CC[C@]5(C)[C@H]6CC[C@]78OC[C@@]9(CC[C@](C)(C=O)C[C@H]97)[C@H](O)C[C@@]8(C)[C@]6(C)CC[C@H]5C4(C)C)[C@H](O)[C@H]3O)O[C@H](CO)[C@@H](O)[C@@H]2O)[C@H](O)[C@H](O)[C@H]1O [CYCLAMIRETIN A]
- IC50 (Bel-7402): > 100 µM
- IC50 (HepG2): > 100 µM
- IC50 [1]: > 100 µM
